{"source": "paper PMC1933457", "about": "“Nitroimidazole Action in Entamoeba histolytica: A Central Role for Thioredoxin Reductase” (PLoS Biology, 2007)", "key": {"recEh TrxR": {"target": "T1, recEh TrxR (Entamoeba histolytica, UniProt C4LW95)", "T1 construct": "gene EHI_155440; C-terminal His6 tag, pET17b, E. coli BL21(DE3), Ni-NTA; C-terminal native peptide 292-314", "T1 sequence (C4LW95 1-314)": "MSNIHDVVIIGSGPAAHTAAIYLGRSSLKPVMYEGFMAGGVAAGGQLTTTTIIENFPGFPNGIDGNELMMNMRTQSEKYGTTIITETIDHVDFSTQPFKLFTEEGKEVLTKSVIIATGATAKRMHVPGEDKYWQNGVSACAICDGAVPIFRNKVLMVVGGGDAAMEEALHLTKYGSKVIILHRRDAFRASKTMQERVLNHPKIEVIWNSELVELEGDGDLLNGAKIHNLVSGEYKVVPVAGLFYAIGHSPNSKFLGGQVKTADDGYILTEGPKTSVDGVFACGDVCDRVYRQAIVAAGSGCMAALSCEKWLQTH", "test": "intact-protein LC-ESI-QTOF-MS after expression with drug", "format": "cell-based", "conditions": "covalent; reduced metabolite; drug present during expression in E. coli"}, "recEh Trx": {"target": "T2, recEh Trx (Entamoeba histolytica, UniProt C4LYR0)", "T2 construct": "gene EHI_004490; C-terminal His6 tag, Met1 removed, one disulfide, 12,322 Da; pET17b, E. coli BL21(DE3), Ni-NTA", "T2 sequence (C4LYR0 2-103)": "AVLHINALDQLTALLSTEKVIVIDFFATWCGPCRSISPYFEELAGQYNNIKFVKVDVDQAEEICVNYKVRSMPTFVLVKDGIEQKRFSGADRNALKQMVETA", "test": "intact-protein LC-ESI-QTOF-MS after expression with drug", "format": "cell-based", "conditions": "covalent; reduced metabolite; drug present during expression in E. coli"}}}
{"substance": "tinidazole [compound 2]", "values": [{"measurement": "mass increment", "setting": "recEh TrxR", "result": 217, "unit": "Da"}, {"measurement": "mass increment", "setting": "recEh Trx", "result": 217, "unit": "Da"}]}
